Measured values as given in patent US7250402B2, “Avermectin derivatives” (The Kitasato Institute, priority 2000, dated 2007).

Assays:
artemia salina = assay: Insecticidal model activity against artemia salina (Brine shrimp) in 96 well microplate (movement graded 0-3, MIC); format: in vivo; conditions: concentration required to give Indication 2 (or 3) for artemia salina; 20° C., observed after 24 and 48 hours
From the text: (§1) Methods for determining antiparasitic effects of the compounds disclosed according to the present invention are explained below.
(§2) As model insects for simple determination of antiparasitic and insecticidal activities, those insects are desired which can be easily obtained and bred in laboratories, and have no pathogenicity to a human. Caenorhabditis elegans, an unparasitic eelworm widely used in experiments of genetics, was used as a typical steam worm, and artemia salina used as feed for tropical fish and named Brine shrimp, was used instead of insects.
<Preparation of Artemia salina Used for Evaluation>
To a buffer for artemia salina (obtained by dissolving 0.24% of Tris, 2.57% of sodium chloride, 0.47% of magnesium chloride, 0.07% of potassium chloride, 0.02% of sodium carbonate, 0.64% of magnesium sulfate and 0.11% of calcium chloride in distilled water and adjusting the pH to 7.1 with hydrochloric acid), dried eggs of artemia salina [Tetra Brine Shrimp Eggs, Warner Lambert Co.] were added. The noprius larvae 1 or 2 days after hatching were used for the experiments.
(§3) Each well of a 96 well microplate was filled with the solution of the test compound (methanol as a solvent), and the solvent was removed using a vacuum pump, then 250 μl of the assay medium was added to each wells (the assay medium was prepared by dissolving 7.5 mM sodium hydrogencarbonate, 7.5 mM potassium chloride, 7.5 mM calcium chloride dihydrate and 7.5 mM magnesium sulfate heptahydrate in distilled water and adding 0.01% of lecithin to the solution), and then the microplate was shaken using a microplate mixer for 15 minutes. To each well, a few individuals of caenorhabditis elegans were added by softly rubbing the surface of the agar using a toothpick, or a few individuals of artemia salina were added together with 50 μl of the buffer. The microplate was incubated at 20° C., and then the insects were observed after 24 and 48 hours under a microscope (magnification of 40×). The results were compared to those obtained without addition of the test compound, and evaluated by 4 grades.
(§4) The evaluation results were shown by indications of 4 grades from 0 to 3.
1: A little week movements
Of the 4 grades, Indications 3 and 2 were judged as effective, and Indications 1 and 0 as ineffective. In Table 7, the values for each compound are minimum inhibitory concentrations (MIC) which were required to give Indication 2 (or 3) for caenorhabditis elegans or artemia salina. In Table 7, caenorhabditis elegans and artemia salina are abbreviated as C.E. and A.S., respectively.

Caenorhabditis elegans = assay: Antiparasitic activity against Caenorhabditis elegans in 96 well microplate (movement graded 0-3, MIC); format: in vivo; conditions: concentration required to give Indication 2 (or 3) for caenorhabditis elegans; 20° C., observed after 24 and 48 hours
From the text: as §1, §2
Preparation of Caenorhabditis elegans Used for Evaluation
Escherichia coli for the feed of caenorhabditis elegans (mutant having uracil requirement) was inoculated in a seed medium for E. coli to which a small amount of uracil was added, and cultured with shaking at 27° C. for 1 day. A petri dish of 6 cm diameter was filled with 10 mL of an agar medium for eelworm proliferation, and the medium was solidified. Then 0.5 mL of the culture of E. coli was spread over the medium in the dish, and the dish was incubated at 37° C. to proliferate E. coli. A piece of the agar was collected with a platinum loop from a petri dish in which caenorhabditis elegans successfully proliferated, and inoculated in petri dishes in which E. coli was proliferated. The petri dishes were incubated at 20° C. to proliferate caenorhabditis elegans. Since the life of eelworm is about 2 weeks, subculture was carried out every once a week. The eelworms grown with spread on the surface of the petri dish after 3 to 5 days from subculture were used for the experiments.
<Preparation of Agar Medium for Eelworm Proliferation>
Solution A was obtained by dissolving 0.3% of sodium chloride, 1.7% of bact-agar (DIFCO Co.), 0.5% of bact-peptone (DIFCO Co.) and 1.0% of yeast extract (DIFCO Co.) in distilled water.
Solution B was obtained by dissolving 0.5% of cholesterol in ethanol.
Solution C was obtained by dissolving 13.9% of calcium chloride in distilled water.
Solution D was obtained by dissolving 30.8% of magnesium sulfate heptahydrate in distilled water.
Solution E was obtained by dissolving 13.54% of KH2PO4 and 4.45% of K2HPO4 in distilled water.
The aforementioned Solutions A, C and D were sterilized in an autoclave at 121° C. for 20 minutes, and each solution was stored at 4° C.
The agar medium for eelworm proliferation was prepared by mixing the solutions in the following proportion: Solution A: 100 mL, Solution B: 0.1 mL, Solution C: 0.05 mL, Solution D: 0.1 mL and Solution E: 2.5 mL (without pH adjustment), and dispensing each 10 mL portion into petri dishes of 60×15 mm.
<Preparation of E. coli Seed Medium>
In distilled water, 2.0% of bact-trypton (DIFCO Co.), 0.55% of sodium chloride and 0.001% of uracil (SIGMA Co., pH 7.4) were dissolved, and the solution was sterilized in an autoclave at 121° C. for 20 minutes.
as §3, §4
1: A little week movements […]

| Molecule | A.S. minimum inhibitory concentrations (MIC) (artemia salina) [ng/mL] | C.E. minimum inhibitory concentrations (MIC) (Caenorhabditis elegans) [ng/mL] |
| --- | --- | --- |
| CC[C@H](C)[C@H]1O[C@]2(C=C[C@@H]1C)C[C@@H]1C[C@@H](C/C=C(\C)[C@@H](O[C@H]3C[C@H](OC)[C@@H](O)[C@H](C)O3)[C@@H](C)/C=C/C=C3\CO[C@@H]4[C@H](O)C(C)=C[C@@H](C(=O)O1)[C@]34O)O2 [Avermectin B1a monosaccharide, avermectin B1a monosaccharide] | 2 | 2 |
| CCC(C)C1O[C@]2(C=C[C@@H]1C)C[C@@H]1CC(C/C=C(\C)[C@@H](OC3C[C@H](OC)[C@@H](OC4C[C@H](OC)[C@@H](O)[C@H](C)O4)[C@H](C)O3)[C@@H](C)/C=C/C=C3\COC4[C@H](O)C(C)=CC(C(=O)O1)[C@]34O)O2 (stereo partly drawn) [Avermectin B1a] | 0.5 | 2 |
| CCC(C)C1OC2(C=C[C@@H]1C)CC1CC(C/C=C(\C)C(O[C@H]3CC(OC)C(=CC(=O)O)C(C)O3)[C@@H](C)/C=C/C=C3\COC4C(O)C(C)=CC(C(=O)O1)[C@]34O)O2 (stereo partly drawn) [Compound 6] | 2 | 2 |
| CCC(C)C1OC2(CC[C@@H]1C)CC1CC(C/C=C(\C)C(O[C@H]3CC(OC)C(=CC#N)C(C)O3)[C@@H](C)/C=C/C=C3\COC4C(O)C(C)=CC(C(=O)O1)[C@]34O)O2 (stereo partly drawn) [Compound 22] | 2 | 2 |
| CCC(C)C1OC2(CCC1C)CC1CC(CC=C(C)C(OC3CC(OC)C(O)C(C)O3)C(C)C=CC=C3COC4C(O)C(C)=CC(C(=O)O1)C34O)O2 (stereo not drawn) [Ivermectin monosaccharide, 22,23-dihydroavermectin B1a monosaccharide] | 2 | 2 |
| Ivermectin | 2 | 2 |
